Test results reported in patent US11851449B2, “Heterocyclic amide compounds having an RORvt inhibitory action” (TAKEDA PHARMACEUTICAL COMPANY LIMITED, priority 2013, dated 2023).
Like-named read-outs stand apart in the source and are kept apart here.

Tests used:
[1] = biological target: T1, RORγt (Homo sapiens, UniProt P51449); experiment: Jurkat reporter test (human IL-17 ROR response element luciferase reporter); type: cell-based; conditions: read-out: luminescence level inhibitory rate (%) at test compound 3 μM
T1 sequence (P51449 1-497 isoform P51449-2): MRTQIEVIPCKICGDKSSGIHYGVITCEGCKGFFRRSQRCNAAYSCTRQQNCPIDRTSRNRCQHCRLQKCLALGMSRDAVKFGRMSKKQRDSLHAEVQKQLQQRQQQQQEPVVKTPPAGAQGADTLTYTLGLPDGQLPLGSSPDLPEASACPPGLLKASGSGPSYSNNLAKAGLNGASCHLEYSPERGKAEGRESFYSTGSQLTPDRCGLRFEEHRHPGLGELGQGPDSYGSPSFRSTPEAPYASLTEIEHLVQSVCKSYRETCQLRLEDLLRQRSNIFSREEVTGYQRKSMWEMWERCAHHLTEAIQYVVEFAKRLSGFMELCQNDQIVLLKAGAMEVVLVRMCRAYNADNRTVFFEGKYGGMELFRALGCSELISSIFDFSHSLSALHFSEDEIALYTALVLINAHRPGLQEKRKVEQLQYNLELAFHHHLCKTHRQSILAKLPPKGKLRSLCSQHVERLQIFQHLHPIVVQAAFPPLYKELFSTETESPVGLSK
In short: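 Jurkat cells were electroporated (1350 V, 10 ms, 3 pulses) with reporter constructs, then cultured overnight with compound in RPMI containing 10% lipid-reduced FCS, 10 mM HEPES pH 7.5 and 5 μM lovastatin. Luciferase was quantified by Bright-Glo luminescence after 10 min at room temperature.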

[2] = biological target: T1, RORγt; experiment: RORγt binding test (TR-FRET, fluorescent-labeled cholesterol); conditions: read-out: binding inhibitory rate (%) of fluorescent-labeled cholesterol to RORγt at test compound 1 μM
In short: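 His-tagged RORγt and BODIPY-cholesterol were incubated with compound for 20 min at room temperature in Tris-HCl pH 7.5, 100 mM NaCl, 1 mM DTT and 0.1% BSA. Terbium anti-His antibody was then added for a further 20 min.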

[3] = biological target: T1, RORγt; experiment: Cofactor recruitment test (Alpha Screen, biotinylated SRC-1 peptide); type: biochemical; conditions: read-out: signal value inhibitory rate (%) at test compound 1 μM
Experimental: Cofactor Recruitment Test
Cofactor recruitment test was performed by Alpha Screen (Histidine Detection Kit, PerkinElmer) method. First, a test compound was diluted with an assay buffer (50 mM Tris-HCl (pH 7.5), 50 mM KCl, 1 mM DTT, 0.1% BSA) and added to a 384 well plate by 5 μL. […] The mixture was stood in a dark place for 1 hr, and the signal value was measured by Envision (PerkinElmer).

[4] = test compound 3 μM, Jurkat cells

| SMILES | inhibition at 3 µM ([1]; Jurkat) | inhibition at 1 µM [2] | inhibition at 1 µM [3] | inhibition at 3 µM [1, 4] |
| --- | --- | --- | --- | --- |
| COCc1ccc([C@@H](NC(=O)Cc2nnc(C)o2)C(=O)Nc2cc(F)c([Si](C)(C)C)c(F)c2)cc1 [Example 74, (2R)—N-(3,5-difluoro-4-(trimethylsilyl)phenyl)-2-(4-(methoxymethyl)phenyl)-2-(((5-methyl-1,3,4-oxadiazol-2-yl)acetyl)amino)acetamide] | 99.4% | 101% | 97.6% | – |
| COCc1ccc([C@@H](NC(=O)[C@@H]2CNC(=O)C2)C(=O)Nc2ccc(C(C)(C)C)c(F)c2)cc1 [Example 101, (3S)—N-((1R)-2-((4-tert-butyl-3-fluorophenyl)amino)-1-(4-(methoxymethyl)phenyl)-2-oxoethyl)-5-oxopyrrolidine-3-carboxamide] | – | 101% | 87.6% | 99.5% |
| Cc1nnc(CC(=O)NC(C(=O)Nc2cc(F)c([Si](C)(C)C)c(F)c2)C2CCOCC2)o1 (stereo not drawn) [Example 2, N-(3,5-difluoro-4-(trimethylsilyl)phenyl)-2-(((5-methyl-1,3,4-oxadiazol-2-yl)acetyl)amino)-2-(tetrahydro-2H-pyran-4-yl)acetamide] | 98.1% | 102% | 78% | – |
| COc1ccc(C(NC(=O)Cn2cnc3ccccc32)C(=O)Nc2ccc([Si](C)(C)C)cc2)cc1 (stereo not drawn) [Example 289, 2-((1H-benzimidazol-1-ylacetyl)amino)-2-(4-methoxyphenyl)-N-(4-(trimethylsilyl)phenyl)acetamide] | 100% | 99.6% | 87.2% | – |
| COc1ccc(C(NC(=O)C2CNC(=O)C2)C(=O)Nc2ccc([Si](C)(C)C)c(C#N)c2)cc1 (stereo not drawn) [Example 27, N-(2-((3-cyano-4-(trimethylsilyl)phenyl)amino)-1-(4-methoxyphenyl)-2-oxoethyl)-5-oxopyrrolidine-3-carboxamide] | 96% | 103% | 92.5% | – |
| COc1ccc(C(NC(=O)N2CCC(O)C2)C(=O)Nc2ccc([Si](C)(C)C)c(F)c2)cc1 (stereo not drawn) [Example 29, N-(2-((3-fluoro-4-(trimethylsilyl)phenyl)amino)-1-(4-methoxyphenyl)-2-oxoethyl)-3-hydroxypyrrolidine-1-carboxamide] | 99.2% | 101% | 92.3% | – |
| COCc1ccc([C@@H](NC(=O)CC2CC(=O)NC(=O)C2)C(=O)Nc2ccc(C(C)(C)C)c(F)c2)cc1 [Example 117, (2R)—N-(4-tert-butyl-3-fluorophenyl)-2-(((2,6-dioxopiperidin-4-yl)acetyl)amino)-2-(4-(methoxymethyl)phenyl)acetamide] | – | 103% | 78.4% | 98.5% |
| COCc1ccc([C@@H](NC(=O)N2CC(O)C2)C(=O)Nc2ccc([Si](C)(C)C)c(F)c2)cc1 [Example 69, N-((1R)-2-((3-fluoro-4-(trimethylsilyl)phenyl)amino)-1-(4-(methoxymethyl)phenyl)-2-oxoethyl)-3-hydroxyazetidine-1-carboxamide] | 98.4% | 103% | 96.8% | – |
| CC(C)(C)c1ccc(NC(=O)[C@H](NC(=O)C2CNC(=O)O2)C2CCC(F)(F)CC2)cc1F (stereo partly drawn) [Example 8, N-((1R)-2-((4-tert-butyl-3-fluorophenyl)amino)-1-(4,4-difluorocyclohexyl)-2-oxoethyl)-2-oxo-1,3-oxazolidine-5-carboxamide] | – | 102% | 49.1% | 93.4% |
| COCc1ccc([C@@H](NC(=O)Cc2cc(O)no2)C(=O)Nc2cc(F)c([Si](C)(C)C)c(F)c2)cc1 [Example 76, (2R)—N-(3,5-difluoro-4-(trimethylsilyl)phenyl)-2-(((3-hydroxy-1,2-oxazol-5-yl)acetyl)amino)-2-(4-(methoxymethyl)phenyl)acetamide] | 99.3% | 103% | 98.5% | – |
| COc1ccc(C(NC(=O)N2CC(O)C2)C(=O)Nc2cc(F)c([Si](C)(C)C)c(F)c2)cc1 (stereo not drawn) [Example 41, N-(2-((3,5-difluoro-4-(trimethylsilyl)phenyl)amino)-1-(4-methoxyphenyl)-2-oxoethyl)-3-hydroxyazetidine-1-carboxamide] | 100% | 101% | 94.4% | – |
| COc1ccc([C@@H](NC(=O)N2CC[C@H](O)C2)C(=O)Nc2ccc([Si](C)(C)C)c(F)c2)cc1 [Example 64, (3S)—N-((1R)-2-((3-fluoro-4-(trimethylsilyl)phenyl)amino)-1-(4-methoxyphenyl)-2-oxoethyl)-3-hydroxypyrrolidine-1-carboxamide] | 98.7% | 102% | 90.1% | – |
| COCc1ccc([C@@H](NC(=O)Cc2nnc(C)o2)C(=O)Nc2ccc([Si](C)(C)C)c(F)c2)cc1 [Example 67, (2R)—N-(3-fluoro-4-(trimethylsilyl)phenyl)-2-(4-(methoxymethyl)phenyl)-2-(((5-methyl-1,3,4-oxadiazol-2-yl)acetyl)amino)acetamide] | 98.5% | 103% | 96% | – |
| COCc1ccc([C@@H](NC(=O)[C@H]2CNC(=O)C2)C(=O)Nc2cc(F)c(C(C)(C)C)c(F)c2)cc1 [Example 113, (3R)—N-((1R)-2-((4-tert-butyl-3,5-difluorophenyl)amino)-1-(4-(methoxymethyl)phenyl)-2-oxoethyl)-5-oxopyrrolidine-3-carboxamide] | – | 102% | 83.9% | 99.7% |
| COCc1ccc([C@@H](NC(=O)CCC(=O)O)C(=O)Nc2cc(F)c([Si](C)(C)C)c(F)c2)cc1 [Example 108, 4-(((1R)-2-((3,5-difluoro-4-(trimethylsilyl)phenyl)amino)-1-(4-(methoxymethyl)phenyl)-2-oxoethyl)amino)-4-oxobutanoic acid] | 99.7% | 100% | 95.3% | – |
| COCc1ccc([C@@H](NC(=O)CCC(F)F)C(=O)Nc2ccc([Si](C)(C)C)c(F)c2)cc1 [Example 92, 4,4-difluoro-N-((1R)-2-((3-fluoro-4-(trimethylsilyl)phenyl)amino)-1-(4-(methoxymethyl)phenyl)-2-oxoethyl)butanamide] | 98.8% | 102% | 92.8% | – |
| C[Si](C)(C)c1ccc(NC(=O)C(NC(=O)[C@@H]2CNC(=O)C2)C2CCC(F)(F)CC2)cc1F (stereo partly drawn) [Example 5, (3S)—N-(1-(4,4-difluorocyclohexyl)-2-((3-fluoro-4-(trimethylsilyl)phenyl)amino)-2-oxoethyl)-5-oxopyrrolidine-3-carboxamide] | 98% | 100% | 84.8% | – |
| Cn1ncc2cc(C(NC(=O)[C@@H]3CNC(=O)C3)C(=O)Nc3ccc([Si](C)(C)C)c(F)c3)ccc21 (mixture of isomers) [Example 109, (3S)—N-(2-((3-fluoro-4-(trimethylsilyl)phenyl)amino)-1-(1-methyl-1H-indazol-5-yl)-2-oxoethyl)-5-oxopyrrolidine-3-carboxamide] | 100% | 100% | 87.6% | – |
| COc1ccc(C(NC(=O)C2CNC(=O)C2)C(=O)Nc2cc(F)c([Si](C)(C)C)c(F)c2)cc1 (stereo not drawn) [Example 37, N-(2-((3,5-difluoro-4-(trimethylsilyl)phenyl)amino)-1-(4-methoxyphenyl)-2-oxoethyl)-5-oxopyrrolidine-3-carboxamide] | 98.5% | 101% | 93.6% | – |
| COc1ccc(C(NC(=O)C2CNC(=O)C2)C(=O)Nc2ccc([Si](C)(C)C)c(F)c2)cc1 (stereo not drawn) [Example 28, N-(2-((3-fluoro-4-(trimethylsilyl)phenyl)amino)-1-(4-methoxyphenyl)-2-oxoethyl)-5-oxopyrrolidine-3-carboxamide] | 98% | 100% | 88% | – |
| COCc1ccc(C(NC(=O)C2CNC(=O)C2)C(=O)Nc2ccc([Si](C)(C)C)c(C#N)c2)cc1 (stereo not drawn) [Example 26, N-(2-((3-cyano-4-(trimethylsilyl)phenyl)amino)-1-(4-(methoxymethyl)phenyl)-2-oxoethyl)-5-oxopyrrolidine-3-carboxamide] | 97.6% | 103% | 99.5% | – |
